Here are results for eight molecules from patent US20230295197A1, “STAT5 and STAT6 Degraders and Uses Thereof” (REGENTS OF THE UNIVERSITY OF MICHICAN, priority 2022, published 2023).

In general, DC50 refers to the concentration at which degradation of the target reaches its halfway point.

Structures are written as SMILES. Like-named read-outs stand apart in the source and are kept apart here.

In the experiment the target is T1, STAT6 (Homo sapiens, UniProt P42226).
T1 construct: endogenous in cells; host or cells: MOLM-16, KU-812, SKNO1, MB231, L1236
T1 sequence (P42226 1-847): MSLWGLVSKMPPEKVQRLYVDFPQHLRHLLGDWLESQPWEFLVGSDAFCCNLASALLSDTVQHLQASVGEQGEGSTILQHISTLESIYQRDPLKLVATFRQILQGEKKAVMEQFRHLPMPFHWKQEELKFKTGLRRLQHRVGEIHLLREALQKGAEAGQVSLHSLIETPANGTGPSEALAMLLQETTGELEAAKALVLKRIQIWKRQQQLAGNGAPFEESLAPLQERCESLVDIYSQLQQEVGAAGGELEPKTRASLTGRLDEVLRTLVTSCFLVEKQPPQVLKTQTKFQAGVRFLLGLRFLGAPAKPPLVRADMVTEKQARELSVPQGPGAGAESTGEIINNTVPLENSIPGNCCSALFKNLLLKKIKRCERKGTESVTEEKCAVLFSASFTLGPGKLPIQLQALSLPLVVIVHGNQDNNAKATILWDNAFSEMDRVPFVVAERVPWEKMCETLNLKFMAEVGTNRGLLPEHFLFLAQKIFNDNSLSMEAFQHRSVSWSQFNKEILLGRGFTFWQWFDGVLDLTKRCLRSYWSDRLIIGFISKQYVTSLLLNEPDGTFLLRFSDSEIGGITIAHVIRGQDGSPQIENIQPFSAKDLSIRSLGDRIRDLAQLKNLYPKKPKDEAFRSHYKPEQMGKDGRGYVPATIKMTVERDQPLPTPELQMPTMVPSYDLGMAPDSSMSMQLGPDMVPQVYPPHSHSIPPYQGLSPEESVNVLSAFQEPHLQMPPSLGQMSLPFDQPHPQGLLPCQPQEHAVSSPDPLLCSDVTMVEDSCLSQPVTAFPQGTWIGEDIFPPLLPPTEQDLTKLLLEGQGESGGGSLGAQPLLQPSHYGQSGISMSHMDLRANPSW
Briefly: Immunoblotting (Western blot) analysis of STAT6 degradation efficiency of degraders in treated cells. Format: cell-based. As to the method: Evaluation of the degradation efficiency of degraders may be accomplished by immunoblotting analysis. The representative general protocol is the following:
Cells are maintained in the appropriate culture medium with 10% FBS at 37° C. and an atmosphere of 5% CO2. Cell lines are used within three months of thawing fresh vials. Cells are lysed 1× Cell Lysis Buffer (Cell Signaling Technology, #9803), resolved by SDS-PAGE NuPAGE gel (Thermo Fisher Scientific), and transferred to a PVDF membrane (Millipore). Membranes are blocked using Odyssey TBS Blocker Buffer (LI-COR). IRDye 680RD and 800CW Dye-labeled secondary antibodies (LI-COR) are used. The washed membranes are scanned using Odyssey CLx imager (LI-COR). The intensity of Western blot signaling is quantitated using the Odyssey software. Primary antibodies used are: STAT5 Rabbit mAb (Cell Signaling Technology, #94205), STAT6 Rabbit mAb (Cell Signaling Technology, #5397) and GAPDH mouse monoclonal antibody (Santa Cruz Biotechnology, sc-47724).
To evaluate the degradation efficiency of degraders, immunoblotting analysis was performed. The general protocol is the following.
About 1 million cells for each data point were treated with compounds at indicated concentrations and durations. Untreated and treated cells in cell culture medium were transferred into tubes, followed by centrifugation at 3,000 rpm and 4° C. for 6 min Supernatants were removed from tubes and radioimmunoprecipitation assay (RIPA) lysis buffer supplemented with 1% protease inhibitor cocktail (Fisher Scientific cat. PI87786) and phosphatase inhibitor (Roche cat. 04906837001) were added to tubes containing the remaining cell pellets. The tubes were then left on ice for 30 min and placed in a −80° C. freezer. Subsequently they were thawed in 37° C. water, then centrifuged at 14,000 rpm for 15 min and the cell lysates transferred to new tubes. The concentration of total proteins in each tube was calculated using the Pierce BCA protein Assay kit (cat. 23225). Based on the calculated protein concentration, cell lysates containing approximately the same amount of proteins were transferred to new tubes, then distilled water and 4× Protein Sample Loading Buffer for Western Blots (LI-COR cat. 928-40004) supplemented with 20% of mercaptoethanol (Sigma Aldrich cat. M6250) were added on ice. The cell lysates were then reduced and denatured at 95° C. for 5 min. From the tubes containing cell lysates an equal amount of protein samples (20-40 μg) was loaded into precast 8%, 10%, 4%-12%, or 4%-20% Tris-glycine gels (Novex) filled with Tris-glycine SDS running buffer. After the proteins were resolved, they were transferred onto Immobile-FL PVDF Membrane (Millipore Sigma cat. IPFL00010), using Mini Trans-Blot Electrophoretic Transfer Cell (Bio-Rad 1703930). The membranes were blocked with Intercept Blocking Buffer (LI-COR cat. 927-70001) in LI-COR Western Blot boxes for 1 h at rt. The membranes were washed with 1× Tris-buffered saline-Tween-20 (TBST, 1× solution was made from 20×TBST solution, ThermoFisher Scientific cat. 28360) for 5 min 4 times. The membranes were incubated overnight at 4° C. in Intercept Blocking Buffer supplemented with primary antibodies (normally antibody:buffer 1:1000) and Tween-20. The membranes were washed with TBST for 5 min 4 times and were incubated with Intercept Blocking Buffer supplemented with IRDye 800CE Secondary Antibodies, IRDye 680RD Secondary Antibodies (LI-COR biosciences), Tween-20, and 10% SDS solution, for 1 h at rt. The membranes were then washed with TBST for 5 min 4 times and rinsed with deionized water before drying and scanning with Odyssey Dlx Amazing System (LI-COR). The immunoblots were finally quantified by the software.
In general terms: In western blotting, separated proteins are transferred to a membrane and probed.

[1] abbreviates: MOLM-16 cells, numeric bound, read-out: DC50 S6 MOLM-16.
The mark [2] stands for this setting: MOLM-16 cells, class symbols, read-out: DC50 S6 MOLM-16.
Where [3] appears, read: L1236 cells, read-out: DC50 S6 L1236.
Setting [4] is: MB231 cells, read-out: DC50 S6 MB231.

`CC(C)(C)[C@H](NC(=O)c1cc2cc(C(F)(F)P(=O)(O)O)ccc2s1)C(=O)N1C[C@@H](OCCN2CCC(C#Cc3cccc4c3CN(C3CCC(=O)NC3=O)C4=O)CC2)C[C@H]1C(=O)N1CCO[C@H](c2ccccc2)C1` (stereo partly drawn) [Compound 604, ((2-(((2S)-1-((2S,4S)-4-(2-(4-((2-(2,6-dioxopiperidin-3-yl)-1-oxoisoindolin-4-yl)ethynyl)piperidin-1-yl)ethoxy)-2-((R)-2-phenylmorpholine-4-carbonyl)pyrrolidin-1-yl)-3,3-dimethyl-1-oxobutan-2-yl)carbamoyl)benzo[b]thiophen-5-yl)difluoromethyl)phosphonic acid]: the half-maximal degradation concentration (DC50) under setting [1] is more than 0.3 µM.

On to `Cc1cc([C@H](C(=O)N2C[C@H](O)C[C@H]2C(=O)N[C@@H](CC(=O)NCCCCCCCCNC(=O)CO[C@@H]2C[C@@H](C(=O)N(C)c3ccc(Br)cc3)N(C(=O)[C@@H](NC(=O)c3cc4cc(C(F)(F)P(=O)(O)O)ccc4s3)C(C)(C)C)C2)c2ccc(-c3scnc3C)cc2)C(C)C)on1` [Compound 423, ((2-(((S)-1-((2S,4R)-2-((4-bromophenyl)(methyl)carbamoyl)-4-(2-((8-((S)-3-((2S,4R)-4-hydroxy-1-((R)-3-methyl-2-(3-methylisoxazol-5-yl)butanoyl)pyrrolidine-2-carboxamido)-3-(4-(4-methylthiazol-5-yl)phenyl)propanamido)octyl)amino)-2-oxoethoxy)pyrrolidin-1-yl)-3,3-dimethyl-1-oxobutan-2-yl)carbamoyl)benzo[b]thiophen-5-yl)difluoromethyl)phosphonic acid], for which the DC50 under setting [2] is more than 10 µM.

`CC(C)(C)[C@H](NC(=O)c1cc2cc(C(F)(F)P(=O)(O)O)ccc2s1)C(=O)N1C[C@@H](OCCCCCCC#Cc2cccc3c2CN(C2CCC(=O)NC2=O)C3=O)C[C@H]1C(=O)N1CCO[C@H](c2ccccc2)C1` (stereo partly drawn) [Compound 587, ((2-(((2S)-1-((2S,4S)-4-((8-(2-(2,6-dioxopiperidin-3-yl)-1-oxoisoindolin-4-yl)oct-7-yn-1-yl)oxy)-2-((R)-2-phenylmorpholine-4-carbonyl)pyrrolidin-1-yl)-3,3-dimethyl-1-oxobutan-2-yl)carbamoyl)benzo[b]thiophen-5-yl)difluoromethyl)phosphonic acid]: the DC50 reads like this: under setting [3], 0.1 to 1 µM; under setting [2], less than 0.1 µM.

Consider `CC(C)(C)[C@H](NC(=O)c1cc2cc(C(F)(F)P(=O)(O)O)ccc2s1)C(=O)N1C[C@@H](OCCCCCCNc2cccc3c2CN(C2CCC(=O)NC2=O)C3=O)C[C@H]1C(=O)N1CCO[C@H](c2ccccc2)C1` (stereo partly drawn) [Compound 599, ((2-(((2S)-1-((2S,4S)-4-((6-((2-(2,6-dioxopiperidin-3-yl)-1-oxoisoindolin-4-yl)amino)hexyl)oxy)-2-((R)-2-phenylmorpholine-4-carbonyl)pyrrolidin-1-yl)-3,3-dimethyl-1-oxobutan-2-yl)carbamoyl)benzo[b]thiophen-5-yl)difluoromethyl)phosphonic acid], for which the half-maximal degradation concentration (DC50) under setting [1] is more than 0.3 µM.

In the case of `Cc1ncsc1-c1ccc([C@H](C)NC(=O)[C@@H]2C[C@@H](O)CN2C(=O)[C@@H](NC(=O)CCCCCCCCCNC(=O)CC(=O)N2CCN(C(=O)[C@@H](NC(=O)c3cc4cc(C(F)(F)P(=O)(O)O)ccc4s3)C(C)(C)C)[C@H](C(=O)N3CCO[C@H](c4ccccc4)C3)C2)C(C)(C)C)cc1` [Compound 451, (difluoro(2-(((S)-1-((S)-4-(3-((10-(((S)-1-((2S,4R)-4-hydroxy-2-(((S)-1-(4-(4-methylthiazol-5-yl)phenyl)ethyl)carbamoyl)pyrrolidin-1-yl)-3,3-dimethyl-1-oxobutan-2-yl)amino)-10-oxodecyl)amino)-3-oxopropanoyl)-2-((R)-2-phenylmorpholine-4-carbonyl)piperazin-1-yl)-3,3-dimethyl-1-oxobutan-2-yl)carbamoyl)benzo[b]thiophen-5-yl)methyl)phosphonic acid], the DC50 was more than 10 µM under setting [3] and more than 10 µM under setting [2].

Turning to `Cc1ncsc1-c1ccc(CNC(=O)[C@@H]2C[C@@H](O)CN2C(=O)[C@@H](NC(=O)CCCCCCCCNC(=O)CO[C@@H]2C[C@@H](C(=O)N(C)c3ccc(Br)cc3)N(C(=O)[C@@H](NC(=O)c3cc4cc(C(F)(F)P(=O)(O)O)ccc4s3)C(C)(C)C)C2)C(C)(C)C)cc1` [Compound 420, ((2-(((S)-1-((2S,4R)-2-((4-bromophenyl)(methyl)carbamoyl)-4-(2-((9-(((S)-1-((2S,4R)-4-hydroxy-2-((4-(4-methylthiazol-5-yl)benzyl)carbamoyl)pyrrolidin-1-yl)-3,3-dimethyl-1-oxobutan-2-yl)amino)-9-oxononyl)amino)-2-oxoethoxy)pyrrolidin-1-yl)-3,3-dimethyl-1-oxobutan-2-yl)carbamoyl)benzo[b]thiophen-5-yl)difluoromethyl)phosphonic acid], the DC50 under setting [3] was more than 10 µM and the DC50 under setting [4] was more than 10 µM.

For `CC(C)(C)[C@H](NC(=O)c1cc2cc(C(F)(F)P(=O)(O)O)ccc2s1)C(=O)N1C[C@@H](OCC(=O)NCCCC#Cc2cccc3c2C(=O)N(C2CCC(=O)NC2=O)C3=O)C[C@H]1C(=O)N1CCO[C@H](c2ccccc2)C1` (stereo partly drawn) [Compound 483, ((2-(((2S)-1-((2S,4S)-4-(2-((5-(2-(2,6-dioxopiperidin-3-yl)-1,3-dioxoisoindolin-4-yl)pent-4-yn-1-yl)amino)-2-oxoethoxy)-2-((R)-2-phenylmorpholine-4-carbonyl)pyrrolidin-1-yl)-3,3-dimethyl-1-oxobutan-2-yl)carbamoyl)benzo[b]thiophen-5-yl)difluoromethyl)phosphonic acid], under setting [2], the half-maximal degradation concentration (DC50) lay within 1 to 10 µM.

For `Cc1ncsc1-c1ccc(CNC(=O)[C@@H]2C[C@@H](O)CN2C(=O)[C@@H](NC(=O)CCCCCCNC(=O)CO[C@@H]2C[C@@H](C(=O)N(C)c3ccc(Br)cc3)N(C(=O)[C@@H](NC(=O)c3cc4cc(C(F)(F)P(=O)(O)O)ccc4s3)C(C)(C)C)C2)C(C)(C)C)cc1` [Compound 418, ((2-(((S)-1-((2S,4R)-2-((4-bromophenyl)(methyl)carbamoyl)-4-(2-((7-(((S)-1-((2S,4R)-4-hydroxy-2-((4-(4-methylthiazol-5-yl)benzyl)carbamoyl)pyrrolidin-1-yl)-3,3-dimethyl-1-oxobutan-2-yl)amino)-7-oxoheptyl)amino)-2-oxoethoxy)pyrrolidin-1-yl)-3,3-dimethyl-1-oxobutan-2-yl)carbamoyl)benzo[b]thiophen-5-yl)difluoromethyl)phosphonic acid], the half-maximal degradation concentration (DC50) under setting [3] was more than 10 µM and the DC50 under setting [4] is more than 10 µM.
